According to ChEMBL document CHEMBL5113398, “Design and synthesis of new quinoline derivatives as selective C-RAF kinase inhibitors with potent anticancer activity” (Eur J Med Chem, 2022):
In brackets after ≈: the same amount, converted by molar mass.

Legend:
HCT-116 [1] = experiment: Anticancer activity against human HCT-116 cells assessed as cell growth inhibition incubated for 48 hrs by SRB assay; assay type: functional
Homo sapiens = species: Homo sapiens; experiment: Inhibition of ABL (unknown origin) at 1 uM in presence of ATP by hotspot kinase assay
NCI-H322M [2] = experiment: Anticancer activity against human NCI-H322M cells assessed as total cell growth inhibition incubated for 48 hrs by SRB assay; assay type: functional
HOP-92 = experiment: Anticancer activity against human HOP-92 cells assessed as cell growth inhibition incubated for 48 hrs by SRB assay; assay type: functional
[3] = molecular target: Dual specificity mitogen-activated protein kinase kinase 2 (Homo sapiens) (UniProt P36507); experiment: Inhibition of MEK2 (unknown origin) at 1 uM in presence of ATP by hotspot kinase assay
CAKI-1 = experiment: Anticancer activity against human CAKI-1 cells assessed as cell growth inhibition incubated for 48 hrs by SRB assay; assay type: functional
IGROV-1 = experiment: Anticancer activity against human IGROV-1 cells assessed as total cell growth inhibition incubated for 48 hrs by SRB assay; assay type: functional
[4] = molecular target: Platelet-derived growth factor receptor alpha (Homo sapiens) (UniProt P16234); experiment: Inhibition of PDGFRalpha (unknown origin) at 1 uM in presence of ATP by hotspot kinase assay
OVCAR-4 = experiment: Anticancer activity against human OVCAR-4 cells assessed as cell growth inhibition incubated for 48 hrs by SRB assay; assay type: functional
M14 = experiment: Anticancer activity against human M14 cells assessed as cell growth inhibition incubated for 48 hrs by SRB assay; assay type: functional
TK-10 = experiment: Anticancer activity against human TK-10 cells assessed as total cell growth inhibition incubated for 48 hrs by SRB assay; assay type: functional
SK-MEL-2 = experiment: Anticancer activity against human SK-MEL-2 cells assessed as total cell growth inhibition incubated for 48 hrs by SRB assay; assay type: functional
EKVX = experiment: Anticancer activity against human EKVX cells assessed as total cell growth inhibition incubated for 48 hrs by SRB assay; assay type: functional
MOLT-4 [5] = experiment: Anticancer activity against human MOLT-4 cells assessed as cell growth inhibition incubated for 48 hrs by SRB assay; assay type: functional
HT-29 = experiment: Anticancer activity against human HT-29 cells assessed as cell growth inhibition incubated for 48 hrs by SRB assay; assay type: functional
SF-268 = experiment: Anticancer activity against human SF-268 cells assessed as cell growth inhibition incubated for 48 hrs by SRB assay; assay type: functional
MCF7 = experiment: Anticancer activity against human MCF7 cells assessed as total cell growth inhibition incubated for 48 hrs by SRB assay; assay type: functional
NCI-H226 = experiment: Anticancer activity against human NCI-H226 cells assessed as cell growth inhibition incubated for 48 hrs by SRB assay; assay type: functional
NCI-H23 = experiment: Anticancer activity against human NCI-H23 cells assessed as total cell growth inhibition incubated for 48 hrs by SRB assay; assay type: functional
SNB-19 = experiment: Anticancer activity against human SNB-19 cells assessed as cell growth inhibition incubated for 48 hrs by SRB assay; assay type: functional
[6] = n-Octanol/PBS partition coefficient, logD of the compound at pH 7.4; assay type: physicochemical
HCT-15 [7] = experiment: Anticancer activity against human HCT-15 cells assessed as total cell growth inhibition incubated for 48 hrs by SRB assay; assay type: functional
UACC-257 = experiment: Anticancer activity against human UACC-257 cells assessed as total cell growth inhibition incubated for 48 hrs by SRB assay; assay type: functional
MOLT-4 [8] = experiment: Anticancer activity against human MOLT-4 cells assessed as total cell growth inhibition incubated for 48 hrs by SRB assay; assay type: functional
[9] = molecular target: Receptor-type tyrosine-protein kinase FLT3 (Homo sapiens) (UniProt P36888); experiment: Inhibition of FLT3 (unknown origin) at 1 uM in presence of ATP by hotspot kinase assay
DU-145 = experiment: Anticancer activity against human DU-145 cells assessed as total cell growth inhibition incubated for 48 hrs by SRB assay; assay type: functional
A498 [10] = experiment: Anticancer activity against human A498 cells assessed as cell growth inhibition incubated for 48 hrs by SRB assay; assay type: functional
[11] = Aqueous solubility of compound by HPLC analysis; assay type: physicochemical
[12] = molecular target: Vascular endothelial growth factor receptor 2 (Homo sapiens) (UniProt P35968); experiment: Inhibition of VEGFR2 (unknown origin) at 1 uM in presence of ATP by hotspot kinase assay
PC-3 = experiment: Anticancer activity against human PC-3 cells assessed as total cell growth inhibition incubated for 48 hrs by SRB assay; assay type: functional
HCT-15 [13] = experiment: Anticancer activity against human HCT-15 cells assessed as cell growth inhibition incubated for 48 hrs by SRB assay; assay type: functional
A498 [14] = experiment: Anticancer activity against human A498 cells assessed as total cell growth inhibition incubated for 48 hrs by SRB assay; assay type: functional
A549 = experiment: Anticancer activity against human A549 cells assessed as total cell growth inhibition incubated for 48 hrs by SRB assay; assay type: functional
OVCAR-3 = experiment: Anticancer activity against human OVCAR-3 cells assessed as cell growth inhibition incubated for 48 hrs by SRB assay; assay type: functional
HCC 2998 [15] = experiment: Anticancer activity against human HCC 2998 cells assessed as cell growth inhibition incubated for 48 hrs by SRB assay; assay type: functional
NCI-H322M [16] = experiment: Anticancer activity against human NCI-H322M cells assessed as cell growth inhibition incubated for 48 hrs by SRB assay; assay type: functional
HL-60 = experiment: Anticancer activity against human HL-60 cells assessed as total cell growth inhibition incubated for 48 hrs by SRB assay; assay type: functional
NCI-H460 = experiment: Anticancer activity against human NCI-H460 cells assessed as total cell growth inhibition incubated for 48 hrs by SRB assay; assay type: functional
T47D = experiment: Anticancer activity against human T47D cells assessed as total cell growth inhibition incubated for 48 hrs by SRB assay; assay type: functional
NCI/ADR-RES = experiment: Anticancer activity against human NCI/ADR-RES cells assessed as cell growth inhibition incubated for 48 hrs by SRB assay; assay type: functional
[17] = Cytotoxicity against human WI-38 cells assessed as cell growth inhibition incubated for 48 hrs by SRB assay; assay type: toxicity, cell-based
KM12 = experiment: Anticancer activity against human KM12 cells assessed as total cell growth inhibition incubated for 48 hrs by SRB assay; assay type: functional
SN12C = experiment: Anticancer activity against human SN12C cells assessed as total cell growth inhibition incubated for 48 hrs by SRB assay; assay type: functional
RXF 393 = experiment: Anticancer activity against human RXF 393 cells assessed as total cell growth inhibition incubated for 48 hrs by SRB assay; assay type: functional
LOX IMVI = experiment: Anticancer activity against human LOX IMVI cells assessed as total cell growth inhibition incubated for 48 hrs by SRB assay; assay type: functional
HCC 2998 [18] = experiment: Anticancer activity against human HCC 2998 cells assessed as total cell growth inhibition incubated for 48 hrs by SRB assay; assay type: functional
U-251 = experiment: Anticancer activity against human U-251 cells assessed as total cell growth inhibition incubated for 48 hrs by SRB assay; assay type: functional
SNB-75 = experiment: Anticancer activity against human SNB-75 cells assessed as total cell growth inhibition incubated for 48 hrs by SRB assay; assay type: functional
HCT-116 [19] = experiment: Anticancer activity against human HCT-116 cells assessed as total cell growth inhibition incubated for 48 hrs by SRB assay; assay type: functional

Sequence of Receptor-type tyrosine-protein kinase FLT3 (Homo sapiens) (P36888 whole entry): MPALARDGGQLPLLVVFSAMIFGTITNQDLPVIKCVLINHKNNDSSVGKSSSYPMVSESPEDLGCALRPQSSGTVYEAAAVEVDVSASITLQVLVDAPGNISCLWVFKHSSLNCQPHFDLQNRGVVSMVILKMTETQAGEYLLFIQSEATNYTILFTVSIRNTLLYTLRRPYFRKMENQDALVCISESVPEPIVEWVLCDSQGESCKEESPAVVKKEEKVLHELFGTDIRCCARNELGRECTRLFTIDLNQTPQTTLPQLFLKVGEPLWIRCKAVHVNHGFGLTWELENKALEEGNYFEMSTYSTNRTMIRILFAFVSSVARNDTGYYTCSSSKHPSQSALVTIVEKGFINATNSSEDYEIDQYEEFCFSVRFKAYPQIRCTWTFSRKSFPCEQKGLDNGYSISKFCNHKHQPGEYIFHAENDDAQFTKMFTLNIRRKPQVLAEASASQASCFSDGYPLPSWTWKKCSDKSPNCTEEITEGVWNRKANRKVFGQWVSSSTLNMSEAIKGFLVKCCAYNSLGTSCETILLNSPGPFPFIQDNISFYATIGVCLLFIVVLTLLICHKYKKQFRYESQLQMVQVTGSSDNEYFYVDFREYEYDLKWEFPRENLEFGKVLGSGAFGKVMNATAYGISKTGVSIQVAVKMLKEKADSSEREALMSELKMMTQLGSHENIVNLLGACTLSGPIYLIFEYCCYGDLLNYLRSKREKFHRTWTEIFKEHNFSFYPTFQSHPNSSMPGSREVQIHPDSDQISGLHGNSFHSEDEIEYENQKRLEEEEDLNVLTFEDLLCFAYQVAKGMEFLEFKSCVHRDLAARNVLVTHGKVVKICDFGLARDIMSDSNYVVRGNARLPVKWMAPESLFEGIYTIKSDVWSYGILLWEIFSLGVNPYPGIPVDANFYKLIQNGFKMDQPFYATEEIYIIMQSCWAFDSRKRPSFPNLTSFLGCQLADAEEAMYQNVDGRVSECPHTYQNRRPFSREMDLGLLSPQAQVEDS
Sequence of Platelet-derived growth factor receptor alpha (Homo sapiens) (P16234 whole entry): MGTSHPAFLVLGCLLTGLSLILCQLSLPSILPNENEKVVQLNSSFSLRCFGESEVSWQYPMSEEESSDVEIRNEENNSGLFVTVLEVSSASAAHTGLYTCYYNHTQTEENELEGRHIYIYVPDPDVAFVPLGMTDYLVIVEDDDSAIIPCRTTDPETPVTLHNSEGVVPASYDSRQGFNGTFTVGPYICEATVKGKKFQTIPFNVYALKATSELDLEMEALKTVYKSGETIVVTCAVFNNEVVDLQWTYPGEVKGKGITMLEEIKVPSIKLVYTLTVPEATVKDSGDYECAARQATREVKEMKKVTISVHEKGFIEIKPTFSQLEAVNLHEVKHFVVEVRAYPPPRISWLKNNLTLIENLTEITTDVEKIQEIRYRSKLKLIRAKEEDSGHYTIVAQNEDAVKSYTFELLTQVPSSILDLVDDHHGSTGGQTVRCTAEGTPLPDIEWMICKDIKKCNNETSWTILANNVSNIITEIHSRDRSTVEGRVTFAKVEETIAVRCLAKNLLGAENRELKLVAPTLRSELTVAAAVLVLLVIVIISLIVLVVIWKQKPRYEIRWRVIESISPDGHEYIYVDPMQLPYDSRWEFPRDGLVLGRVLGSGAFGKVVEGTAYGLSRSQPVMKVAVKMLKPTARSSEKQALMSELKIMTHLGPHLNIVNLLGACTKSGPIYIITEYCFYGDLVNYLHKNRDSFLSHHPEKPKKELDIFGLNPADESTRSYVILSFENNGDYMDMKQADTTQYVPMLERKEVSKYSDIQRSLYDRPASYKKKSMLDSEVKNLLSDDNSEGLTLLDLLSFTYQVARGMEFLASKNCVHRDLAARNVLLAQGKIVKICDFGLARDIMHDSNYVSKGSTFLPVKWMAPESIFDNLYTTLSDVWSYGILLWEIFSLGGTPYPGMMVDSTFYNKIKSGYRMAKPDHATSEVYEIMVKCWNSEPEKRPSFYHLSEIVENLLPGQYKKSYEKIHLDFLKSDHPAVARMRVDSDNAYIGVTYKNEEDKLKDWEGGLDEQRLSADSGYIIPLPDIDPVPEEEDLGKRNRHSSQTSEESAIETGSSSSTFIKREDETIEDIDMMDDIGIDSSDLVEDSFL
Sequence of Vascular endothelial growth factor receptor 2 (Homo sapiens) (P35968 whole entry): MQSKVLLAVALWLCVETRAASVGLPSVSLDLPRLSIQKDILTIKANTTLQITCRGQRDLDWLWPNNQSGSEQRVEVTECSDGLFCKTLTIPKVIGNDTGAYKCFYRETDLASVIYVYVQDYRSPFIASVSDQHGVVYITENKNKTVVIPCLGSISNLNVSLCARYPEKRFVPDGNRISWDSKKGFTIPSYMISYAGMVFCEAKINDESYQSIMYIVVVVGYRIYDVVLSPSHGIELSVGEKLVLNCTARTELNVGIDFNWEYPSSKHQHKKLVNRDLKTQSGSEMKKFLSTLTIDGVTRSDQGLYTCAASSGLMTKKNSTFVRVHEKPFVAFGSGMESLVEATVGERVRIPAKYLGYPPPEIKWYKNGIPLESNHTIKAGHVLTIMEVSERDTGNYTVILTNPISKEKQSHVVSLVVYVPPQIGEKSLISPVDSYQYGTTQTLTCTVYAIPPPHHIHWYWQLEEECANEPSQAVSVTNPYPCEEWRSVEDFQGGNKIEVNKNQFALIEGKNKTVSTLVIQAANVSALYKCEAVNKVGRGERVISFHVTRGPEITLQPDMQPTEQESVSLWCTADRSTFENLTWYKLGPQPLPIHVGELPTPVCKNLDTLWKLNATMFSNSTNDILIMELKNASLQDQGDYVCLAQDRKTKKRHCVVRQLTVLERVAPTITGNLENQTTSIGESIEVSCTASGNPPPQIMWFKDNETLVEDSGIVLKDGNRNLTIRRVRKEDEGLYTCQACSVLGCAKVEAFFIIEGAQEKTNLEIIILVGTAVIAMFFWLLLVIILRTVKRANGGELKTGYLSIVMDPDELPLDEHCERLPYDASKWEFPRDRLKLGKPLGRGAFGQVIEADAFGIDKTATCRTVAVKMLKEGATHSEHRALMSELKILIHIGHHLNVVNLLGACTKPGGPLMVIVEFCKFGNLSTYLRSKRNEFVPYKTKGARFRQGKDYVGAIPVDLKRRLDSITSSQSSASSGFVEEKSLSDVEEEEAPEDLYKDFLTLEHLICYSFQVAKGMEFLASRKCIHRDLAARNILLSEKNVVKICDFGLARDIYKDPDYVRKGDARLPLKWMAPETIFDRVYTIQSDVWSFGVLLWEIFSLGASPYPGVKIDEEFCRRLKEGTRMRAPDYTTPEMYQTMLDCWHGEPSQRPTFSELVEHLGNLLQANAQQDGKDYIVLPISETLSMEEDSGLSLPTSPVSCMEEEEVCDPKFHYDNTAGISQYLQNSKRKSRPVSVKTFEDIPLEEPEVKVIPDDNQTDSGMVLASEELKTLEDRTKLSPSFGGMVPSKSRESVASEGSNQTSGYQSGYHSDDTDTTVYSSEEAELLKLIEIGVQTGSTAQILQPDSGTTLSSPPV
Sequence of Dual specificity mitogen-activated protein kinase kinase 2 (Homo sapiens) (P36507 whole entry): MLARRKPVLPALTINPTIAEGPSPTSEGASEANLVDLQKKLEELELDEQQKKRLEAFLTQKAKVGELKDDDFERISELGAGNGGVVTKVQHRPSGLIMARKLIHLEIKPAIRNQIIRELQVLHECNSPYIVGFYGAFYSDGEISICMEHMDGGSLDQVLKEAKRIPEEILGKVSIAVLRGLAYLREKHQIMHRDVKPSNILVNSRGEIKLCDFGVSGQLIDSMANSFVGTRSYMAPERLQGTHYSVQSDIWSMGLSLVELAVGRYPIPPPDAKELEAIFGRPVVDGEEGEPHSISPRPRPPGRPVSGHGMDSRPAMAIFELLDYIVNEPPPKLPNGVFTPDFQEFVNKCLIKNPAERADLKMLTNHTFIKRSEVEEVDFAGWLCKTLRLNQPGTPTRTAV

## COc1cc2cc(Oc3ccc(NC(=O)Nc4ccc(F)c(C(F)(F)F)c4)cc3)c(C)nc2cc1OCCN1CCOCC1
HCT-116 [1]
  GI50: 1.11 µM
Homo sapiens
  inhibition: -0.53%
NCI-H322M [2]
  TGI: 13.6 µM
HOP-92
  GI50: 1.31 µM
[3]
  inhibition: 10.4%
CAKI-1
  GI50: 2.06 µM
IGROV-1
  TGI: 19.5 µM
[4]
  inhibition: 18.3%
OVCAR-4
  GI50: 0.71 µM
M14
  GI50: 1.53 µM
TK-10
  TGI: 25.1 µM
SK-MEL-2
  TGI: 7.58 µM
EKVX
  TGI: 20.7 µM
MOLT-4 [5]
  GI50: 1.86 µM
HT-29
  GI50: 3.07 µM
SF-268
  GI50: 3.66 µM
MCF7
  TGI: 3.48 µM
NCI-H226
  GI50: 2.55 µM
NCI-H23
  TGI: 5.88 µM
SNB-19
  GI50: 3.96 µM
[6]
  logD: 2.54
HCT-15 [7]
  TGI: 4.19 µM
UACC-257
  TGI: 5.18 µM
MOLT-4 [8]
  TGI: 11.4 µM
[9]
  inhibition: 28.4%
DU-145
  TGI: 15.2 µM
A498 [10]
  GI50: 2.8 µM
[11]
  solubility: 497 µM (≈ 305 µg/mL)
[12]
  inhibition: -5.85%
PC-3
  TGI: 10.1 µM
HCT-15 [13]
  GI50: 1.73 µM
A498 [14]
  TGI: 10.2 µM
A549
  TGI: 34.3 µM
OVCAR-3
  GI50: 2.94 µM
HCC 2998 [15]
  GI50: 5.34 µM
NCI-H322M [16]
  GI50: 3.37 µM
HL-60
  TGI: 6.14 µM
NCI-H460
  TGI: 5.34 µM
T47D
  TGI: 32.1 µM
NCI/ADR-RES
  GI50: 2.56 µM
[17]
  GI50 at 48 h: > 20 µM
KM12
  TGI: 10.6 µM
SN12C
  TGI: 15.5 µM
RXF 393
  TGI: 3.94 µM
LOX IMVI
  TGI: 2.86 µM
HCC 2998 [18]
  TGI: 16.7 µM
U-251
  TGI: 11.1 µM
SNB-75
  TGI: 7.45 µM
HCT-116 [19]
  TGI: 11.2 µM

## COc1cc2cc(Oc3ccc(NC(=O)Nc4cc(C(F)(F)F)cc(C(F)(F)F)c4)cc3)c(C)nc2cc1OCCN1CCOCC1
HCT-116 [1]
  GI50: 1.42 µM
Homo sapiens
  inhibition: -2.3%
NCI-H322M [2]
  TGI: 6.87 µM
HOP-92
  GI50: 0.9 µM
[3]
  inhibition: 16.4%
CAKI-1
  GI50: 1.47 µM
IGROV-1
  TGI: 6.9 µM
[4]
  inhibition: 26.9%
OVCAR-4
  GI50: 1.88 µM
M14
  GI50: 1.51 µM
TK-10
  TGI: 12.5 µM
SK-MEL-2
  TGI: 6.91 µM
EKVX
  TGI: 6.68 µM
MOLT-4 [5]
  GI50: 1.32 µM
HT-29
  GI50: 1.75 µM
SF-268
  GI50: 1.98 µM
MCF7
  TGI: 3.91 µM
NCI-H226
  GI50: 1.6 µM
NCI-H23
  TGI: 6.69 µM
SNB-19
  GI50: 1.88 µM
[6]
  logD: 2.91
HCT-15 [7]
  TGI: 2.77 µM
UACC-257
  TGI: 4.24 µM
MOLT-4 [8]
  TGI: 4.29 µM
[9]
  inhibition: 20.5%
DU-145
  TGI: 7.05 µM
A498 [10]
  GI50: 1.8 µM
[11]
  solubility: 317 µM (≈ 211 µg/mL)
[12]
  inhibition: 6.34%
PC-3
  TGI: 5.16 µM
HCT-15 [13]
  GI50: 1.1 µM
A498 [14]
  TGI: 6.69 µM
A549
  TGI: 7.23 µM
OVCAR-3
  GI50: 1.43 µM
HCC 2998 [15]
  GI50: 2.09 µM
NCI-H322M [16]
  GI50: 1.82 µM
HL-60
  TGI: 4.93 µM
NCI-H460
  TGI: 5.52 µM
T47D
  TGI: 10.2 µM
NCI/ADR-RES
  GI50: 1.59 µM
[17]
  GI50 at 48 h: > 20 µM
KM12
  TGI: 5.95 µM
SN12C
  TGI: 5.48 µM
RXF 393
  TGI: 2.99 µM
LOX IMVI
  TGI: 5.09 µM
HCC 2998 [18]
  TGI: 6.97 µM
U-251
  TGI: 2.85 µM
SNB-75
  TGI: 4.48 µM
HCT-116 [19]
  TGI: 5.33 µM

## COc1cc2cc(Oc3ccc(NC(=O)Nc4ccc(Cl)c(C(F)(F)F)c4)cc3)c(C)nc2cc1OCCN1CCOCC1
HCT-116 [1]
  GI50: 10.8 µM
Homo sapiens
  inhibition: -5.6%
NCI-H322M [2]
  TGI: 11.2 µM
HOP-92
  GI50: 1.66 µM
[3]
  inhibition: 17.3%
CAKI-1
  GI50: 1.8 µM
IGROV-1
  TGI: 23.2 µM
[4]
  inhibition: 23.2%
OVCAR-4
  GI50: 0.58 µM
M14
  GI50: 1.52 µM
TK-10
  TGI: 35.2 µM
SK-MEL-2
  TGI: 4.06 µM
EKVX
  TGI: 13.7 µM
MOLT-4 [5]
  GI50: 1.48 µM
HT-29
  GI50: 11.2 µM
SF-268
  GI50: 2.59 µM
MCF7
  TGI: 3.33 µM
NCI-H226
  GI50: 1.86 µM
NCI-H23
  TGI: 3.89 µM
SNB-19
  GI50: 3.23 µM
[6]
  logD: 2.73
HCT-15 [7]
  TGI: 3.18 µM
UACC-257
  TGI: 4.55 µM
MOLT-4 [8]
  TGI: 10.5 µM
[9]
  inhibition: 13.2%
DU-145
  TGI: 13.8 µM
A498 [10]
  GI50: 2.45 µM
[11]
  solubility: 349 µM (≈ 221 µg/mL)
[12]
  inhibition: 2.32%
PC-3
  TGI: 6 µM
HCT-15 [13]
  GI50: 3.18 µM
A498 [14]
  TGI: 9.62 µM
A549
  TGI: > 100 µM
OVCAR-3
  GI50: 1.52 µM
HCC 2998 [15]
  GI50: 11.1 µM
NCI-H322M [16]
  GI50: 2.82 µM
HL-60
  TGI: 7.56 µM
NCI-H460
  TGI: 3.62 µM
T47D
  TGI: 5.2 µM
NCI/ADR-RES
  GI50: 2.34 µM
[17]
  GI50 at 48 h: > 20 µM
KM12
  TGI: 5.3 µM
SN12C
  TGI: 56.2 µM
RXF 393
  TGI: 3.99 µM
LOX IMVI
  TGI: 2.81 µM
HCC 2998 [18]
  TGI: 11.1 µM
U-251
  TGI: 3.9 µM
SNB-75
  TGI: 7.05 µM
HCT-116 [19]
  TGI: 10.8 µM
